Test results: BindingDB's records for doi:10.1016/s0960-894x(01)00239-6 (Dupont Pharmaceuticals, 2001)

Target: T1, Gag-Pol polyprotein [588-1027]/[588-1147] (Human immunodeficiency virus 1, UniProt P04585)
T1 construct: 588-1027; 588-1147
Assay: HIV-1 RT Assay
Conditions: pH 8.2; 37 °C
Source text: The IC50 of reverse transcriptase is the concentration that inhibits 50% of recombinant HIV-1 RT RNA-directed DNA polymerase activity in vitro.

SMILES	IC50 [nM]
C[C@@H]1O[C@](/C=C/C2CC2)(C(F)(F)F)c2c(ccc(F)c2F)NC1=O [(3S,5S)-5-[(E)-2-cyclopropylethenyl]-6,7-difluoro-3-methyl-5-(trifluoromethyl)-1,2,3,5-tetrahydro-4,1-benzoxazepin-2-one]	173
CC[C@@H]1O[C@](/C=C/C2CC2)(C(F)(F)F)c2cc(F)ccc2NC1=O [(3S,5S)-5-[(E)-2-cyclopropylethenyl]-3-ethyl-7-fluoro-5-(trifluoromethyl)-1,2,3,5-tetrahydro-4,1-benzoxazepin-2-one]	151
C[C@@H]1O[C@](/C=C/C2CC2)(C(F)(F)F)c2cc(F)ccc2NC1=O [(3S,5S)-5-[(E)-2-cyclopropylethenyl]-7-fluoro-3-methyl-5-(trifluoromethyl)-1,2,3,5-tetrahydro-4,1-benzoxazepin-2-one]	129
CC[C@@H]1O[C@](/C=C/C2CC2)(C(F)(F)F)c2cc(Cl)ccc2NC1=O [(3S,5S)-7-chloro-5-[(E)-2-cyclopropylethenyl]-3-ethyl-5-(trifluoromethyl)-1,2,3,5-tetrahydro-4,1-benzoxazepin-2-one]	185
C[C@@H]1O[C@](/C=C/C2CC2)(C(F)(F)F)c2cc(Cl)ccc2NC1=O [(3S,5S)-7-chloro-5-[(E)-2-cyclopropylethenyl]-3-methyl-5-(trifluoromethyl)-1,2,3,5-tetrahydro-4,1-benzoxazepin-2-one]	46
